Assay results as given in ChEMBL document CHEMBL3352395, “Quantitative structure-activity relationship of antifungal activity of rosin derivatives” (2015).

Columns and labels:
Trametes versicolor = assay: Antifungal activity against Trametes versicolor after 3 to 5 days by paper disc method relative to 1227; format: functional
Gloeophyllum trabeum = assay: Antifungal activity against Gloeophyllum trabeum after 3 to 5 days by paper disc method relative to 1227; format: functional

Row | Compound | Ratio (Trametes versicolor) | log(ratio) (Trametes versicolor) | Ratio (Gloeophyllum trabeum) | log(ratio) (Gloeophyllum trabeum) | inhibition zone (IZ) (Trametes versicolor) [mm] | inhibition zone (IZ) (Gloeophyllum trabeum) [mm]
1 | CC(C)C1CC[C@H]2C(CC[C@@H]3[C@]2(C)CCC[C@@]3(C)C(=O)O)C1 (stereo not given in full) | 26.67 | 1.426 | 36.36 | 1.5607 |  | 
2 | CC(C)C1CC[C@H]2C(CC[C@@H]3[C@]2(C)CCC[C@@]3(C)C(=O)OCC(O)CCl)C1 (stereo not given in full) | 26.67 | 1.426 | 36.36 | 1.5607 |  | 
3 | CC(C)C1=CC23CC[C@@H]4[C@](C)(CCC[C@@]4(C)C(=O)O)[C@H]2CC1CC3C(=O)O (stereo not given in full) | 26.67 | 1.426 | 36.36 | 1.5607 |  | 
4 | CC(C)C1=CC23CC[C@@H]4[C@](C)(CCC[C@@]4(C)C(=O)OCC(O)CCl)[C@H]2CC1CC3C(=O)OCC(O)CCl (stereo not given in full) | 26.67 | 1.426 | 36.36 | 1.5607 |  | 
5 | CCOC(=O)[C@]1(C)CCC[C@@]2(C)[C@H]1CC=C1C=C(C(C)C)CC[C@@H]12 | 26.67 | 1.426 | 36.36 | 1.5607 |  | 
6 | CC(C)C1=CC2=CC[C@@H]3[C@](C)(CCC[C@@]3(C)C(=O)OCC(O)CCl)[C@H]2CC1 (stereo not given in full) | 26.67 | 1.426 | 36.36 | 1.5607 |  | 
7 | CC(C)c1ccc2c(c1)CC[C@H]1[C@](C)(C(=O)OCC(O)CCl)CCC[C@]21C (stereo not given in full) | 30 | 1.4771 | 40.91 | 1.6118 |  | 
8 | CC(C)C1CC[C@H]2C(CC[C@@H]3[C@]2(C)CCC[C@@]3(C)C(=O)OCC(O)C[N+](C)(C)C)C1 (stereo not given in full) | 53.33 | 1.727 | 59.09 | 1.7715 |  | 
9 | CC[N+](CC)(CC)CC(O)COC(=O)[C@]1(C)CCC[C@@]2(C)[C@H]1CCC1CC(C(C)C)CC[C@@H]12 (stereo not given in full) | 56.67 | 1.7533 | 59.09 | 1.7715 |  | 
10 | CC[N+](CC)(CC(O)COC(=O)[C@]1(C)CCC[C@@]2(C)[C@H]1CCC1CC(C(C)C)CC[C@@H]12)CC1CO1 (stereo not given in full) | 40 | 1.6021 | 59.09 | 1.7715 |  | 
11 | CCN(CC)CC(O)COC(=O)[C@]1(C)CCC[C@@]2(C)[C@H]1CCC1CC(C(C)C)CC[C@@H]12 (stereo not given in full) | 33.33 | 1.5229 | 50 | 1.699 |  | 
12 | CC(C)C1=CC2=CC[C@@H]3[C@](C)(CCC[C@@]3(C)C(=O)OCC(O)C[N+](C)(C)CC3CO3)[C@H]2CC1 (stereo not given in full) | 46.67 | 1.669 | 63.64 | 1.8037 |  | 
13 | CC(C)c1ccc2c(c1)CC[C@H]1[C@](C)(C(=O)OCC(O)C[N+](C)(C)C)CCC[C@]21C (stereo not given in full) | 60 | 1.7782 | 81.82 | 1.9128 |  | 
14 | CC[N+](CC)(CC)CC(O)COC(=O)[C@]1(C)CCC[C@]2(C)c3ccc(C(C)C)cc3CC[C@@H]12 (stereo not given in full) | 56.67 | 1.7533 | 81.82 | 1.9128 |  | 
15 | CC(C)c1ccc2c(c1)CC[C@H]1[C@](C)(C(=O)OCC(O)CN(C)C)CCC[C@]21C (stereo not given in full) | 43.33 | 1.6368 | 68.18 | 1.8337 |  | 
16 | CC(C)c1ccc2c(c1)CC[C@H]1[C@](C)(C(=O)OCC(O)C[N+](C)(C)CC3CO3)CCC[C@]21C (stereo not given in full) | 50 | 1.699 | 77.27 | 1.888 |  | 
17 | CC(C)C1=CC23CC[C@@H]4[C@](C)(CCC[C@@]4(C)C(=O)OCC(O)C[N+](C)(C)C)[C@H]2CC1CC3C(=O)OCC(O)C[N+](C)(C)C (stereo not given in full) | 70 | 1.8451 | 81.82 | 1.9128 |  | 
18 | CC[N+](CC)(CC)CC(O)COC(=O)C1CC2C[C@H]3C1(C=C2C(C)C)CC[C@@H]1[C@]3(C)CCC[C@@]1(C)C(=O)OCC(O)C[N+](CC)(CC)CC (stereo not given in full) | 66.67 | 1.8239 | 77.27 | 1.888 |  | 
19 | CC(C)C1=CC23CC[C@@H]4[C@](C)(CCC[C@@]4(C)C(=O)OCC(O)CN(C)C)[C@H]2CC1CC3C(=O)OCC(O)CN(C)C (stereo not given in full) | 46.67 | 1.669 | 59.09 | 1.7715 |  | 
20 | CC(C)C1=CC23CC[C@@H]4[C@](C)(CCC[C@@]4(C)C(=O)OCC(O)C[N+](C)(C)CC4CO4)[C@H]2CC1CC3C(=O)OCC(O)C[N+](C)(C)CC1CO1 (stereo not given in full) | 60 | 1.7782 | 77.27 | 1.888 |  | 
21 | CC[N+](CC)(CC(O)COC(=O)C1CC2C[C@H]3C1(C=C2C(C)C)CC[C@@H]1[C@]3(C)CCC[C@@]1(C)C(=O)OCC(O)C[N+](CC)(CC)CC1CO1)CC1CO1 (stereo not given in full) | 63.33 | 1.8016 | 77.27 | 1.888 |  | 
22 | CC(C)C1=CC2=CC[C@@H]3[C@](C)(CCC[C@@]3(C)C(=O)OCC(O)C[N+](C)(C)CC[N+](C)(C)CC(O)COC(=O)[C@]3(C)CCC[C@@]4(C)[C@H]3CC=C3C=C(C(C)C)CC[C@@H]34)[C@H]2CC1 (stereo not given in full) | 56.67 | 1.7533 | 72.73 | 1.8617 |  | 
23 | CC[N+](CC)(CC)CC(O)COC(=O)C1C2C[C@H]3C(C=C2C(C)C)(CC[C@@H]2[C@]3(C)CCC[C@@]2(C)C(=O)OCC(O)C[N+](CC)(CC)CC)C1C(=O)OCC(O)C[N+](CC)(CC)CC.[Cl-].[Cl-].[Cl-] (stereo not given in full) | 86.7 |  | 95.5 |  | 26 | 21
24 | CC(C)C1=CC2=CC[C@@H]3[C@](C)(CCC[C@@]3(C)C(=O)O)[C@H]2CC1 [ABIETIC ACID] | 26.67 | 1.426 | 36.36 | 1.5607 |  | 
25 | CC(C)c1ccc2c(c1)CC[C@H]1[C@](C)(C(=O)O)CCC[C@]21C [DEHYDROABIETIC ACID] | 30 | 1.4771 | 40.91 | 1.6118 |  | 
